Test results published in patent publication US20050198896A1, “Novel vegetal reinforcing agent based on phytohormones for use in the cultivation of plants or agriculture, preferably in the cultivation of fruit or in wine growing” (priority 2002, published 2005).

Experiments:
sugar-beets = experiment: sugar transport from the leaves into the beet body; assay type: in vivo; details: about 2 to 3 weeks before harvest; same effect in potatoes, red beet and carrots
Text: A further surprising inventive feature of the phytohormonal properties of ABA is the effect of promoting the protein and sugar transport in the plants from the leaves into the root(s). […] The same effect is observed in potatoes, red beet and carrots. The increase in sugar content leads to a substantial quality improvement of the harvested produce.

cherry crops = experiment: bursting of cherries after rainfall, exogenous application of ABA before rainfall; assay type: in vivo; details: variety Hedelfinger
Text: In cherry crops it is an important problem that if it rains shortly before the harvest the cherries are capable of absorbing large quantities of water in their interior. This frequently causes them to burst so that they can no longer be utilized. Exogenous application of ABA in cherry crops before rainfall reduces the bursting of the variety Hedelfinger, for example, by up to 30%.

trees in fruit crops = experiment: renewed burgeoning following rain after a prolonged period of dryness; assay type: in vivo, trees in fruit crops; potatoes; details: also observed in potatoes
Text: It has furthermore been observed that trees in fruit crops following rain after a prolonged period of dryness burgeon again. This has a negative influence on the quality of the fruit. […] This effect has also been observed in potatoes.

vine = experiment: quality enhancement in wine growing with ABA; assay type: in vivo; details: applied for several weeks prior to harvest
Text: ABA can also be used for quality enhancement in wine growing. […] This leads to a higher density of the wine and thereby to wines with improved storage stability. Analogous effects occur in pears and apples.

apples and pears = experiment: leaf abortion in apples and pears; assay type: in vivo
Text: This makes a further treatment with a fungicide unnecessary.

chrysanthemums = experiment: frost resistance, damaged flowers after frost; assay type: in vivo; details: application about 24 hours prior to the frost
Method: Just as astonishing is the effect that exogenous application of ABA leads to frost resistance in crops, e.g. pears and apples, of adornment plants and fruit crops which has been observed. Application about 24 hours prior to the frost reduced the number of damaged flowers in chrysanthemums by 48%.

firs and spruces = experiment: stress-susceptibility and needle retention of Christmas trees; assay type: in vivo
botrytis disease = experiment: infestation of grapes with botrytis disease; assay type: in vivo; details: loosening-up of the grapes (lengthening of the stalks)
Text: According to a further embodiment of the invention, GA3 and/or GA4/7 is/are used during the blooming period in the cultivation of […] grapes, table grapes or of grapes for special purposes, to enhance quality and as a protective measure against botrytis disease, in an application concentration of 5 to 100, preferably 5 to 50, especially 10 to 20 ppm, based on a quantity of water of 300 to 500, preferably 350 to 450 l/ha. […] By contrast to conventional treatment with fungicides this happens purely mechanically/morphologically since the greater length of the stalks prevents mutual pushing away of the grapes, and damage to the grapes is thereby avoided. Such damage results in the occurrence of nest-shaped focuses of rot.

grapes = experiment: GA3 in grapes compared to treatment with ethephon; assay type: in vivo
Text: According to a further embodiment of the invention, GA3 and/or GA4/7 is/are used during the blooming period in the cultivation of […] grapes, table grapes or of grapes for special purposes, to enhance quality and as a protective measure against botrytis disease, in an application concentration of 5 to 100, preferably 5 to 50, especially 10 to 20 ppm, based on a quantity of water of 300 to 500, preferably 350 to 450 l/ha.

Row | Structure (SMILES) | transport of leaf sugar into the body of the beet (sugar-beets) | reduction of the bursting of cherries (cherry crops) | renewed burgeoning of the plants (trees in fruit crops) | increase in sugar content of the grapes (vine) | reduction of the size of the grapes (vine) | leaf abortion (apples and pears) | reduction of the number of damaged flowers (chrysanthemums) [%] | needle retention (firs and spruces; compared with untreated trees) | stress-susceptibility (firs and spruces; firs and spruces harvested as Christmas trees) | infestation with botrytis disease (botrytis disease) | density of the wine, colour and wine quality (grapes) | grape weight (grapes) | mean grape diameter (grapes)
1 | CC(C=C[C@@]1(O)C(C)=CC(=O)CC1(C)C)=CC(=O)O (stereo in doubt) [ABA, (S)-5-(1-hydroxy-2,6,6-trimethyl-4-oxo-2-cyclohexenyl)-3-methyl-cis/trans-2,4-pentadienoic acid] | the sugar present in the leaves is additionally transported into the body of the beet | up to 30% | prevents renewed burgeoning of the plants | comparable increase in sugar content | up to 10% | quick leaf abortion | 48 | keep their needles for much longer than untreated trees | reduction of stress-susceptibility | – | – | – | –
2 | C=C1C[C@]23C[C@@]1(O)CC[C@H]2[C@@]12C=C[C@H](O)[C@@](C)(C(=O)O1)[C@H]2[C@@H]3C(=O)O [GA3, gibberellin A3] | – | – | – | – | – | – | – | – | – | reduction in infestation with botrytis disease | improved | no reduction in grape weight is observed | larger
